Several values for one entry are separate records, joined by “and”; a condition that tells them apart may be missing. Identical values can stand only once.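 Where inhibition never reached the appropriate level, the endpoint shown equals the highest concentration tested. Otherwise, values were interpolated linearly from a five-concentration, 48-hour dose response in 96-well plates. Here, GI50 denotes the concentration required for 50% inhibition of growth. At the TGI there is no net growth.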
What was measured:
Experiment in all cases: inhibition of tumour cell growth, NCI panel, 48 h
SK-OV-3 ovarian = tested on: SK-OV-3 ovarian
EKVX NSCLC = tested on: EKVX NSCLC
RXF 393 renal = tested on: RXF 393 renal
NCI-H226 lung = tested on: NCI-H226 lung
COLO 205 colon = tested on: COLO 205 colon
NCI-H460 lung = tested on: NCI-H460 lung
SW-620 colon = tested on: SW-620 colon
SK-MEL-28 melanoma = tested on: SK-MEL-28 melanoma
T-47D breast = tested on: T-47D breast
MDA-N = tested on: MDA-N
KM12 colon = tested on: KM12 colon

Row | Structure (SMILES) | TGI (SK-OV-3 ovarian) [µM] | TGI (EKVX NSCLC) [µM] | TGI (RXF 393 renal) [µM] | TGI (NCI-H226 lung) [µM] | TGI (COLO 205 colon) [µM] | TGI (NCI-H460 lung) [µM] | TGI (SW-620 colon) [µM] | TGI (SK-MEL-28 melanoma) [µM] | TGI (T-47D breast) [µM] | TGI (MDA-N) [µM] | TGI (KM12 colon) [µM] | GI50 (SK-OV-3 ovarian) [µM] | GI50 (RXF 393 renal) | GI50 (NCI-H226 lung) [µM] | GI50 (KM12 colon) | GI50 (COLO 205 colon) | GI50 (NCI-H460 lung) | GI50 (SW-620 colon) [µM] | GI50 (SK-MEL-28 melanoma) [µM]
1 | COc1ccc(CNc2nc3ccc(C(F)(F)F)cc3nc2-c2ccccc2)cc1OC | > 100 | > 100 | > 100 | > 100 | > 100 | > 100 | > 100 | > 100 |  |  |  |  |  |  |  |  |  |  | 
2 | Cc1cccc(N(CCC#N)S(=O)(=O)c2ccccc2)c1 | > 100 | > 100 |  | > 100 | > 100 | > 100 | > 100 | > 100 | > 100 | > 100 | > 100 |  |  |  |  |  |  |  | 
3 | CN(C)c1ccc(/C(Br)=C2\OC(=O)c3ccccc32)cc1 | > 100 | > 100 |  | > 100 | > 100 | > 100 | > 100 | > 100 | > 100 | > 100 | > 100 |  |  |  |  |  |  |  | 
4 | COc1cc([C@@H]2c3cc4c(cc3C[C@H]3COC(=O)[C@@H]32)OCO4)cc(OC)c1OC | > 50 | > 50 | > 50 | 0.891 | 0.028 | < 0.005 | > 50 | > 50 |  | 0.00582 | > 50 | 0.00431 | 0.00723 µM and 0.0157 µM | 0.00524 | 0.00389 µM and 0.005 µM | 0.00627 µM and 0.0092 µM | 0.00327 µM and < 0.005 µM | 0.00336 | 0.00645
5 | c1ccc(N=c2snc(-c3ccccc3)s2)cc1 | > 100 |  | > 100 | > 100 | > 100 | > 100 | > 100 | > 100 |  |  | > 100 |  |  |  |  |  |  |  | 
6 | COc1ccc(NC2Oc3cc4c(cc3C(c3cc(OC)c(OC)c(OC)c3)C2C)OCO4)cc1 (stereo not drawn) | > 100 | 34.1 | > 100 | 5.58 | 2.96 | > 48.5 | > 100 | > 100 |  |  | > 31.6 |  |  |  |  |  |  |  | 
7 | Cc1cc2cccc(Cl)c2nc1C(=O)c1ccccc1 |  |  | > 100 | > 100 | > 100 |  | > 100 | > 100 |  |  | > 100 |  |  |  |  |  |  |  | 
8 | CC(=O)CC(=O)c1cc2c(=O)oc(C)cc2oc1=O | > 37.5 | > 37.5 | > 37.5 | > 37.5 | > 37.5 | > 37.5 | > 37.5 | > 37.5 |  | > 37.5 | > 37.5 |  |  |  |  |  |  |  | 
9 | C=CCCCC12CCCc3cccc(c31)NC2=O (stereo not drawn) | 45.3 | 37.3 | 42.8 | 40.3 | 40.4 | 33.8 | 41.8 |  |  |  | 35.6 |  |  |  |  |  |  |  | 
10 | O=C1C(Cl)N(c2ccccc2)C1c1c[nH]c2ccccc12 (stereo not drawn) | > 100 | > 100 | > 100 |  | > 100 | > 100 | > 100 | > 100 |  |  | > 100 |  |  |  |  |  |  |  | 
11 | O=C(OCc1ccccc1)OOC(=O)OCc1ccccc1 | > 100 | > 100 | > 100 |  | > 100 | > 100 | > 100 | > 100 |  |  | > 100 |  |  |  |  |  |  |  | 
12 | c1ccc2c(c1)CCCN1CCc3ccccc3C21 (stereo not drawn) | > 100 | > 100 |  | > 100 | > 100 | > 100 | > 100 | > 100 | > 100 | 70.4 | > 100 |  |  |  |  |  |  |  | 
13 | O=C(CCc1ccc(O)cc1)c1c(O)cc(O)cc1OC1OC(CO)C(O)C(O)C1O (stereo not drawn) | > 100 | > 100 |  |  | > 100 |  | > 100 | > 100 | > 100 | > 100 | > 100 |  |  |  |  |  |  |  | 
14 | CCOc1ccc(N=C/C=C(\Cl)c2ccc3ccccc3c2)cc1 | 38.4 | 62.1 | 34.1 | 53.7 | 37.7 | 44.8 | 36.5 | 31.4 | 22.3 |  | 33.9 |  |  |  |  |  |  |  | 
15 | CC(C)=CC1C(C(=O)O)C1(C)C (stereo not drawn) | > 750 | > 750 | > 750 | > 750 | > 750 | > 750 | > 750 | > 750 |  |  | > 750 |  |  |  |  |  |  |  | 
16 | CC(C)c1c(P(=O)(c2ccccc2)c2ccccc2)n(C)c2ccccc12 |  | > 100 |  | > 100 | > 100 | > 100 | > 100 | > 100 | > 100 | > 100 | > 100 |  |  |  |  |  |  |  | 
17 | C[C@@H]1C[C@H](O)[C@]2(O)O[C@@H]3C[C@@]4(C=O)[C@@H](CC=C5[C@@H]4CC[C@]4(C)[C@@H](C6=CC(=O)OC6)CC[C@]54O)C[C@H]3O[C@@H]2O1 | 1.86 | 0.215 |  | 0.233 | 1.94 | 0.0711 | 1.87 |  | 0.325 | 0.195 | 0.749 |  |  |  |  |  |  |  | 
18 | CC(=O)Nc1ccc(Cl)c(Cl)c1 | > 100 | > 100 | > 100 | > 100 | > 100 | > 100 | > 100 | > 100 |  |  | > 100 |  |  |  |  |  |  |  | 
19 | COC1C=CC23c4cc5c(cc4C(O)OC2CN(C)C3C1)OCO5 (stereo not drawn) |  | 32.9 |  | 5.36 | 2.99 | 56.7 | 11.6 |  |  |  | 13.4 |  |  |  |  |  |  |  | 

Reference: PubChem BioAssay (NCI)
